Test results: patent publication US8629158B2, “Azabicycloalkane-indole and azabicycloalkane-pyrrolo-pyridine MCH-1 antagonists, methods of making, and use thereof” (Albany Molecular Research, Inc., priority 2009, dated 2014)
Where a name gives a salt, the structure may show the parent alone. Read-outs that look alike come from different tables or passages of the source.

Molecular target: human MCH-1 receptor (Homo sapiens (Human), UniProt Q99705)
Assay: Binding Assay for Human Melanin-Concentrating Hormone (MCH-1) Receptor (radioligand displacement, CHO-K1 membranes)
Conditions: for Ki: membranes from CHO-K1 cells expressing human MCH1 receptor, [3H]-labeled radioligand, Ki from IC50 by Cheng Prusoff; for inhibition at 1 µM: @ 1 uM test compound, read-out: MCH-1 percent inhibition of control radioligand specific binding
Method: Evaluation of the affinity of compounds for the human MCH-1 receptor was accomplished using 4-(3,4,5-tritritiumbenzyloxy)-1-(1-(2-(pyrrolidin-1-yl)ethyl)-1H-indazol-5-yl)pyridin-2(1H)-one and membranes prepared from stable CHO-K1 cells expressing the human MCH1 receptor obtained from Euroscreen (Batch 1138). Cell membrane homogenates (8.92 μg protein) were incubated for 60 min at 25° C. with […] of the [^3H]-labeled compound in the absence or presence of the test compound in 50 mM Tris-HCl buffer, pH 7.4. Nonspecific binding was determined in the presence of 50 μM 1-(5-(4-cyanophenyl)bicyclo[3.1.0]hexan-2-yl)-3-(4-fluoro-3-(trifluoromethyl)phenyl)-1-(3-(4-methylpiperazin-1-yl)propyl)urea. Following incubation, the samples were filtered rapidly under vacuum through Skatron 11731 filters, pre-soaked in 0.5% polyethylenimine, and washed with ice-cold 50 mM Tris-HCl buffer, pH 7.4, (wash setting 9,9,0) using a Skatron cell harvester. The filters were counted for radioactivity in a liquid scintillation counter (Tri-Carb 2100TR, Packard) using a scintillation cocktail (Ultima Gold MV, Perkin Elmer).
The results are expressed as a percent inhibition of the control radioligand specific binding. The IC50 value (concentration causing a half-maximal inhibition of control specific binding) and Hill coefficient (nH) were determined by non-linear regression analysis of the competition curve using Hill equation curve fitting. The inhibition constant (Ki) was calculated from the Cheng Prusoff equation: (Ki=IC50/(1+(L/KD)), where L=concentration of radioligand in the assay, and KD=affinity of the radioligand for the receptor.

human MCH-1 receptor, sequence (Q99705 whole entry): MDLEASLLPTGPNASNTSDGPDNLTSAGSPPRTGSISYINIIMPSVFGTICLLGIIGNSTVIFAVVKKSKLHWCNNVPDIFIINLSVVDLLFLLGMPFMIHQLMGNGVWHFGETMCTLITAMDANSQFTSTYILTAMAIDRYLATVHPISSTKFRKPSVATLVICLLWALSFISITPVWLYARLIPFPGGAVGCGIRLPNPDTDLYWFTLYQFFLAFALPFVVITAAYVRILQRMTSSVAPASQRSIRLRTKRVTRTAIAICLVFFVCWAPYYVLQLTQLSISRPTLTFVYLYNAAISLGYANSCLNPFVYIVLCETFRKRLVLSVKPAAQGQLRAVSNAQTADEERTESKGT

SMILES | Ki (MCH-1 Ki (nM)) | further results
Cn1c2c(c3ccc(-n4ccc(OCc5ccccc5)cc4=O)cc31)C1CCC(C2)N1 (single isomer, unassigned; enantiomer a) [Example 14, 4-(Benzyloxy)-1-(5-methyl-5,6,7,8,9,10-hexahydro-7,10-iminocyclohept[b]indol-3-yl)pyridin-2(1H)-one hydrochloride (Enantiomer A)] | 15.8 nM | –
Cn1c2c(c3ccc(-n4ccc(OCc5ccc(F)cn5)cc4=O)cc31)C1CCC(C2)N1 (single isomer, unassigned; enantiomer a) [Example 25, (+)-4-((5-Fluoropyridin-2-yl)methoxy)-1-(5-methyl-5,6,7,8,9,10-hexahydro-7,10-iminocyclohept[b]indol-3-yl)pyridin-2(1H)-one hydrochloride (Enantiomer A)] | 19 nM | –
CC(=O)N1C2CCC1c1c(n(C)c3cc(-n4ccc(OCc5ccc(F)cn5)cc4=O)ccc13)C2 (single isomer, unassigned; enantiomer a) [Example 29, 1-(11-Acetyl-5-methyl-5,6,7,8,9,10-hexahydro-7,10-iminocyclohept[b]indol-3-yl)-4-((5-Fluoropyridin-2-yl)methoxy)pyridin-2(1H)-one (Enantiomer A)] | 75 nM | –
CC(=O)N1C2CCC1c1c([nH]c3cc(-n4ccc(OCc5ccccc5)cc4=O)ccc13)C2 (single isomer, unassigned; enantiomer a) [Example 30, 1-(11-Acetyl-5,6,7,8,9,10-hexahydro-7,10-iminocyclohept[b]indol-3-yl)-4-(benzyloxy)pyridin-2(1H)-one hydrochloride (Enantiomer A)] | 97 nM | –
Cn1c2c(c3ccc(N4CCN(CCc5ccccc5)CC4=O)cc31)C1CCC(C2)N1 (single isomer, unassigned; enantiomer a) [Example 34, 1-(5-Methyl-5,6,7,8,9,10-hexahydro-7,10-iminocyclohept[b]indol-3-yl)-4-phenethylpiperazin-2-one dihydrochloride (Enantiomer A)] | – | inhibition at 1 µM: 68%
Cn1c2c(c3ccc(-n4ccc(-c5ccc(C(F)(F)F)nc5)cc4=O)cc31)C1CCC(C2)N1 (single isomer, unassigned; enantiomer a) [Example 37, 1-(5-Methyl-5,6,7,8,9,10-hexahydro-7,10-iminocyclohept[b]indol-3-yl)-4-(6-(trifluoromethyl)pyridin-3-yl)pyridin-2(1H)-one hydrochloride (Enantiomer A)] | – | inhibition at 1 µM: 72%
Cn1c2c(c3ccc(-n4ccc(OCc5ccccc5)cc4=O)cc31)C1CCC(C2)N1 (single isomer, unassigned; enantiomer b) [Example 15, 4-(Benzyloxy)-1-(5-methyl-5,6,7,8,9,10-hexahydro-7,10-iminocyclohept[b]indol-3-yl)pyridin-2(1H)-one hydrochloride (Enantiomer B)] | 7.8 nM | –
Cn1c2c(c3ccc(-n4ccc(-c5ccc(C(F)(F)F)cn5)cc4=O)cc31)C1CCC(C2)N1 (single isomer, unassigned; enantiomer b) [Example 16, 1-(5-Methyl-5,6,7,8,9,10-hexahydro-7,10-iminocyclohept[b]indol-3-yl)-4-(5-(trifluoromethyl)pyridin-2-yl)pyridin-2(1H)-one hydrochloride (Enantiomer B)] | – | Ki (read-out: MCH-1 Ki): 14 nM
Cn1c2c(c3ccc(-n4ccc(OCc5ccc(F)cn5)cc4=O)cc31)C1CCC(C2)N1 (single isomer, unassigned; enantiomer b) [Example 24, (−)-4-((5-Fluoropyridin-2-yl)methoxy)-1-(5-methyl-5,6,7,8,9,10-hexahydro-7,10-iminocyclohept[b]indol-3-yl)pyridin-2(1H)-one hydrochloride (Enantiomer B)] | 7.4 nM | –
Cn1c2c(c3ccc(N4CCN(CCc5ccccc5)CC4=O)cc31)C1CCC(C2)N1 (single isomer, unassigned; enantiomer b) [Example 33, 1-(5-Methyl-5,6,7,8,9,10-hexahydro-7,10-iminocyclohept[b]indol-3-yl)-4-phenethylpiperazin-2-one dihydrochloride (Enantiomer B)] | 17 nM | –
